Reference: PubChem BioAssay (NCI)
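Briefly, cells in 96-well plates were exposed to five compound concentrations for 48 h, and endpoints were estimated by linear interpolation. Abbreviation: GI50, concentration required for 50% inhibition of growth. TGI is the concentration that stops growth completely.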

What was measured:
Test in all cases: growth of human tumour cells (NCI), 48 h
UACC-257 melanoma = system: UACC-257 melanoma
EKVX NSCLC = system: EKVX NSCLC
NCI-H23 lung = system: NCI-H23 lung
CAKI-1 renal = system: CAKI-1 renal
SK-OV-3 ovarian = system: SK-OV-3 ovarian
SF-268 CNS = system: SF-268 CNS
SR leukemia = system: SR leukemia
HOP-92 NSCLC = system: HOP-92 NSCLC
A498 renal = system: A498 renal
U251 CNS = system: U251 CNS

Row | Compound | GI50 (UACC-257 melanoma) [µM] | TGI (UACC-257 melanoma) [µM] | GI50 (EKVX NSCLC) [µM] | TGI (EKVX NSCLC) [µM] | GI50 (NCI-H23 lung) [µM] | TGI (NCI-H23 lung) [µM] | GI50 (CAKI-1 renal) [µM] | TGI (CAKI-1 renal) [µM] | GI50 (SK-OV-3 ovarian) [µM] | TGI (SK-OV-3 ovarian) [µM] | GI50 (SF-268 CNS) [µM] | TGI (SF-268 CNS) [µM] | GI50 (SR leukemia) [µM] | TGI (SR leukemia) [µM] | GI50 (HOP-92 NSCLC) [µM] | TGI (HOP-92 NSCLC) [µM] | GI50 (A498 renal) [µM] | TGI (A498 renal) [µM] | GI50 (U251 CNS) [µM] | TGI (U251 CNS) [µM]
1 | C/C=C/C/C=C/[C@H](C)C[C@H](O)[C@@H]1C[C@@H]2O[C@H]2/C=C/[C@@H]2OC(C)(C)O[C@H]2/C=C/C[C@H](C)CC(=O)O1 | 56.7 | > 100 | 21 | > 100 | 6.08 | > 100 | 2.9 | 31.1 | 24.5 | > 100 | 10.4 | > 100 | 8.08 | > 100 | 6.71 | 91.6 | > 100 | > 100 | 13.5 | > 100
2 | COCCOCCOCc1n(Cc2ccc3ccccc3c2)c2ccccc2[n+]1Cc1ccc2ccccc2c1 | 0.289 | 0.988 | 1.04 | 2.68 | 0.392 | 1.73 | – | – | 1.14 | 2.49 | 0.442 | 1.68 | 0.36 | 1.6 | 0.149 | 0.829 | 0.92 | 2.19 | 0.352 | 1.48
3 | N#COc1ccc(Oc2ccccc2)cc1 | – | > 100 | – | > 100 | – | > 100 | – | > 100 | – | > 100 | – | > 100 | – | 50 | – | > 100 | – | > 100 | – | > 100
4 | CC1=C(/C=C/C(=O)CC(=O)/C=C/C2=C(C)CCCC2(C)C)C(C)(C)CCC1 | 20.6 | 63.5 | 15.5 | 52.8 | 24.9 | > 100 | 19.1 | > 100 | 40.6 | > 100 | 18.2 | > 100 | 11.9 | 40.4 | 28 | > 100 | 51.7 | > 100 | 29.2 | > 100
5 | O=C1CC[C@H](N2Cc3c(OCc4ccc(CN5CCOCC5)cc4)cccc3C2=O)C(=O)N1 | > 100 | > 100 | > 100 | > 100 | – | – | > 100 | > 100 | > 100 | > 100 | > 100 | > 100 | 4.83 | > 100 | > 100 | > 100 | > 100 | > 100 | > 100 | > 100
6 | c1ccc(CN2CCc3[nH]c4ccccc4c3C2)cc1 | – | 37.1 | – | > 86.8 | – | > 92.6 | – | > 100 | – | 98.4 | – | > 86.8 | – | > 76.6 | – | 62.1 | – | 88.1 | – | 53.8
7 | CC[C@@]1(OC(=O)C(N)CCCCN)C(=O)OCc2c1cc1n(c2=O)Cc2cc3ccccc3nc2-1 (stereo partly specified) | – | 1.56 | – | > 30.6 | – | 0.282 | – | 0.158 | – | 12 | – | 11.9 | – | < 0.0217 | – | 1.72 | – | 0.455 | – | > 11.6
8 | CNC(=O)c1cc(Oc2cccc3nc(NC(=O)Nc4cc(C(F)(F)F)cc(C(F)(F)F)c4)ccc23)ccn1 | 13.2 | 44.1 | 4.46 | 86.3 | 6.15 | 42.7 | 10.1 | 57.3 | 2.99 | 10.1 | 4.93 | 39.4 | 13 | > 100 | 2.5 | 6.27 | 1.99 | 5.02 | 2.47 | 6.27
